Literature values, collected in patent US20100035919A1, “COMPOUNDS USEFUL AS INHIBITORS OF PROTEIN KINASES” (ABBOTT LABORATORIES, priority 2008, published 2010).

Columns and labels:
rat = conditions: experimental myocardial infarction (MI); rat model of chronic hypertension induced congestive heart failure
OLETF rats = conditions: high dose
Zucker obese rats = conditions: 4 weeks
vein grafts = conditions: weeks following the procedure

| SMILES | effect on ischemia-reperfusion injury, myocardial infarct size and myocardial fibrosis (rat) | development of diabetes, obesity, and dyslipidemia (OLETF rats) | serum adiponectin levels (OLETF rats) | blood pressure, glucose and lipid metabolism, insulin signalling, endothelial dysfunction (Zucker obese rats) | cerebral blood flow (in vivo) | neuroprotection (under CNS ischemic conditions) | VSMC apoptosis (vein grafts) | intimal thickening and vascular smooth muscle cell (VSMC) proliferation (vein grafts) |
| --- | --- | --- | --- | --- | --- | --- | --- | --- |
| C[C@@H](N)[C@H]1CC[C@H](C(=O)Nc2ccncc2)CC1 [Example Y-27632, Y-27632] | decrease ischemia-reperfusion injury, myocardial infarct size, and myocardial fibrosis |  |  |  |  |  |  |  |
| O=S(=O)(c1cccc2cnccc12)N1CCCNCC1 [fasudil] | decrease ischemia-reperfusion injury, myocardial infarct size, and myocardial fibrosis | completely suppressed | increased | reduced blood pressure, corrected glucose and lipid metabolism, improved insulin signalling and endothelial dysfunction | increased cerebral blood flow | neuroprotective | enhanced | significantly suppressed |
